Patent US10202361B2, “Pyridazinones as herbicides” (E I DU PONT DE NEMOURS AND COMPANY, priority 2014, dated 2019)

Experiments:
Experiment in all cases: Test D pre-/postemergence controlled growth environment herbicide test
Type in all cases: in vivo
Conditions in all cases: scale 0 to 100
[1] = tested on: foxtail, green (green foxtail, Setaria viridis)
Description: (§1) Seeds of plant species selected from bluegrass (annual bluegrass, Poa annua), blackgrass (Alopecurus myosuroides), canarygrass (Phalaris minor), chickweed (common chickweed, Stellaria media), galium (catchweed bedstraw, Galium aparine), downy bromegrass (Bromus tectorum), field poppy (Papaver rhoeas), field violet (Viola arvensis), foxtail, green (green foxtail, Setaria viridis), deadnettle (henbit deadnettle, Lamium amplexicaule), ryegrass, Italian (Italian ryegrass, Lolium multiflorum), kochia (Kochia scoparia), lambsquarters (Chenopodium album), oilseed rape (Brassica napus), pigweed (Amaranthus retroflexus), chamomile (scentless chamomile, Matricaria inodora), Russian thistle (Salsola kali), speedwell (bird's-eye speedwell, Veronica persica), barley, spring (spring barley, Hordeum vulgare), wheat, spring (spring wheat, Triticum aestivum), buckwheat, wild (wild buckwheat, Polygonum convolvulus), mustard, wild (wild mustard, Sinapis arvensis), oat, wild (wild oat, Avena fatua), radish, wild (wild radish, Raphanus raphanistrum), windgrass (Apera spica-venti), barley, winter (winter barley, Hordeum vulgare), and wheat, winter (winter wheat, Triticum aestivum) were planted into a silt loam soil and treated preemergence with test chemicals formulated in a non-phytotoxic solvent mixture which included a surfactant.
(§2) At the same time, these species were planted in pots containing Redi-Earth® planting medium (Scotts Company, 14111 Scottslawn Road, Marysville, Ohio 43041) comprising spaghnum peat moss, vermiculite, wetting agent and starter nutrients and treated with postemergence applications of the test chemicals formulated in the same manner. Plants ranged in height from 2 to 18 cm (1- to 4-leaf stage). Treated plants and controls were maintained in a controlled growth environment for 14 to 21 d after which time all species were compared to controls and visually evaluated. Plant response ratings, summarized in Table D, are based on a scale of 0 to 100 where 0 is no effect and 100 is complete control. A dash (-) response means no test result.

[2] = tested on: field poppy (Papaver rhoeas)
Description: as §1, §2

[3] = tested on: radish, wild (wild radish, Raphanus raphanistrum)
Description: as §1, §2

[4] = tested on: mustard, wild (wild mustard, Sinapis arvensis)
Description: as §1, §2

[5] = tested on: pigweed (Amaranthus retroflexus)
Description: as §1, §2

[6] = tested on: buckwheat, wild (wild buckwheat, Polygonum convolvulus)
Description: as §1, §2

[7] = tested on: blackgrass (Alopecurus myosuroides)
Description: as §1, §2

[8] = tested on: canarygrass (Phalaris minor)
Description: as §1, §2

[9] = tested on: chickweed (common chickweed, Stellaria media)
Description: as §1, §2

[10] = tested on: Russian thistle (Salsola kali)
Description: as §1, §2

[11] = tested on: speedwell (bird's-eye speedwell, Veronica persica)
Description: as §1, §2

`Cc1cc(=O)n(-c2ccc(F)cc2)nc1Cc1ccnc(C(F)(F)F)c1` [Compound 1, 2-(4-fluorophenyl)-5-methyl-6-[[2-(trifluoromethyl)-4-pyridinyl]methyl]-3(2H)-pyridazinone] showed a Plant response rating ([1]; Postemergence, 31 g ai/ha) of 0, a Plant response rating ([1]; Postemergence, 62 g ai/ha) of 0 and a Plant response rating ([1]; Postemergence, 125 g ai/ha) of 0. For the same compound, the Plant response rating ([1]; Postemergence, 250 g ai/ha) was 20, the Plant response rating ([1]; Postemergence, 500 g ai/ha) was 70 and the Plant response rating ([1]; Preemergence, 31 g ai/ha) was 0. For the same compound, the Plant response rating ([1]; Preemergence, 62 g ai/ha) was 60, the Plant response rating ([1]; Preemergence, 125 g ai/ha) was 100 and the Plant response rating ([1]; Preemergence, 250 g ai/ha) was 100. For the same compound, the Plant response rating ([1]; Preemergence, 500 g ai/ha) was 100, the Plant response rating ([2]; Postemergence, 31 g ai/ha) was 30 and the Plant response rating ([2]; Postemergence, 62 g ai/ha) was 60. For the same compound, the Plant response rating ([2]; Postemergence, 125 g ai/ha) was 60, the Plant response rating ([2]; Postemergence, 250 g ai/ha) was 80 and the Plant response rating ([2]; Postemergence, 500 g ai/ha) was 85. It also gave a Plant response rating ([2]; Preemergence, 31 g ai/ha) of 50, a Plant response rating ([2]; Preemergence, 62 g ai/ha) of 95 and a Plant response rating ([2]; Preemergence, 125 g ai/ha) of 95. The Plant response rating ([2]; Preemergence, 250 g ai/ha) was 100, the Plant response rating ([2]; Preemergence, 500 g ai/ha) was 100 and the Plant response rating ([3]; Postemergence, 31 g ai/ha) was 10. It also gave a Plant response rating ([3]; Postemergence, 62 g ai/ha) of 25, a Plant response rating ([3]; Postemergence, 125 g ai/ha) of 35 and a Plant response rating ([3]; Postemergence, 250 g ai/ha) of 50. The Plant response rating ([3]; Postemergence, 500 g ai/ha) was 90, the Plant response rating ([3]; Preemergence, 62 g ai/ha) was 75 and the Plant response rating ([3]; Preemergence, 125 g ai/ha) was 60. For the same compound, the Plant response rating ([3]; Preemergence, 250 g ai/ha) was 100, the Plant response rating ([3]; Preemergence, 500 g ai/ha) was 100 and the Plant response rating ([4]; Postemergence, 31 g ai/ha) was 20. The Plant response rating ([4]; Postemergence, 62 g ai/ha) was 20, the Plant response rating ([4]; Postemergence, 125 g ai/ha) was 30 and the Plant response rating ([4]; Postemergence, 250 g ai/ha) was 80. For the same compound, the Plant response rating ([4]; Postemergence, 500 g ai/ha) was 80, the Plant response rating ([4]; Preemergence, 62 g ai/ha) was 40 and the Plant response rating ([4]; Preemergence, 250 g ai/ha) was 95. For the same compound, the Plant response rating ([4]; Preemergence, 500 g ai/ha) was 95, the Plant response rating ([5]; Postemergence, 31 g ai/ha) was 20 and the Plant response rating ([5]; Postemergence, 62 g ai/ha) was 30. For the same compound, the Plant response rating ([5]; Postemergence, 125 g ai/ha) was 30, the Plant response rating ([5]; Postemergence, 250 g ai/ha) was 40 and the Plant response rating ([5]; Postemergence, 500 g ai/ha) was 50. The Plant response rating ([5]; Preemergence, 62 g ai/ha) was 20, the Plant response rating ([5]; Preemergence, 125 g ai/ha) was 100 and the Plant response rating ([5]; Preemergence, 250 g ai/ha) was 100. The Plant response rating ([5]; Preemergence, 500 g ai/ha) was 100, the Plant response rating ([6]; Postemergence, 31 g ai/ha) was 20 and the Plant response rating ([6]; Postemergence, 62 g ai/ha) was 20. The Plant response rating ([6]; Postemergence, 125 g ai/ha) was 30, the Plant response rating ([6]; Postemergence, 250 g ai/ha) was 40 and the Plant response rating ([6]; Postemergence, 500 g ai/ha) was 60. For the same compound, the Plant response rating ([6]; Preemergence, 31 g ai/ha) was 0, the Plant response rating ([6]; Preemergence, 62 g ai/ha) was 40 and the Plant response rating ([6]; Preemergence, 125 g ai/ha) was 70. It also gave a Plant response rating ([6]; Preemergence, 250 g ai/ha) of 70, a Plant response rating ([6]; Preemergence, 500 g ai/ha) of 70 and a Plant response rating ([7]; Postemergence, 31 g ai/ha) of 0. The Plant response rating ([7]; Postemergence, 62 g ai/ha) was 10, the Plant response rating ([7]; Postemergence, 125 g ai/ha) was 10 and the Plant response rating ([7]; Postemergence, 250 g ai/ha) was 20. For the same compound, the Plant response rating ([7]; Postemergence, 500 g ai/ha) was 20, the Plant response rating ([7]; Preemergence, 31 g ai/ha) was 0 and the Plant response rating ([7]; Preemergence, 62 g ai/ha) was 0. For the same compound, the Plant response rating ([7]; Preemergence, 125 g ai/ha) was 20, the Plant response rating ([7]; Preemergence, 250 g ai/ha) was 40 and the Plant response rating ([7]; Preemergence, 500 g ai/ha) was 75. The Plant response rating ([8]; Postemergence, 31 g ai/ha) was 5, the Plant response rating ([8]; Postemergence, 62 g ai/ha) was 10 and the Plant response rating ([8]; Postemergence, 125 g ai/ha) was 15. It also gave a Plant response rating ([8]; Postemergence, 250 g ai/ha) of 20, a Plant response rating ([8]; Postemergence, 500 g ai/ha) of 20 and a Plant response rating ([8]; Preemergence, 31 g ai/ha) of 0. For the same compound, the Plant response rating ([8]; Preemergence, 62 g ai/ha) was 0, the Plant response rating ([8]; Preemergence, 125 g ai/ha) was 5 and the Plant response rating ([8]; Preemergence, 250 g ai/ha) was 15. It also gave a Plant response rating ([8]; Preemergence, 500 g ai/ha) of 30, a Plant response rating ([9]; Postemergence, 31 g ai/ha) of 30 and a Plant response rating ([9]; Postemergence, 62 g ai/ha) of 30. It also gave a Plant response rating ([9]; Postemergence, 125 g ai/ha) of 50, a Plant response rating ([9]; Postemergence, 250 g ai/ha) of 50 and a Plant response rating ([9]; Postemergence, 500 g ai/ha) of 60. It also gave a Plant response rating ([9]; Preemergence, 31 g ai/ha) of 100, a Plant response rating ([9]; Preemergence, 62 g ai/ha) of 100 and a Plant response rating ([9]; Preemergence, 125 g ai/ha) of 100. For the same compound, the Plant response rating ([9]; Preemergence, 250 g ai/ha) was 100, the Plant response rating ([9]; Preemergence, 500 g ai/ha) was 100 and the Plant response rating ([10]; Postemergence, 62 g ai/ha) was 20. It also gave a Plant response rating ([10]; Postemergence, 250 g ai/ha) of 50, a Plant response rating ([10]; Preemergence, 62 g ai/ha) of 20 and a Plant response rating ([10]; Preemergence, 125 g ai/ha) of 100. For the same compound, the Plant response rating ([10]; Preemergence, 250 g ai/ha) was 100, the Plant response rating ([10]; Preemergence, 500 g ai/ha) was 100 and the Plant response rating ([11]; Postemergence, 31 g ai/ha) was 30. It also gave a Plant response rating ([11]; Postemergence, 62 g ai/ha) of 80, a Plant response rating ([11]; Postemergence, 125 g ai/ha) of 100 and a Plant response rating ([11]; Postemergence, 250 g ai/ha) of 40. For the same compound, the Plant response rating ([11]; Postemergence, 500 g ai/ha) was 100, the Plant response rating ([11]; Preemergence, 31 g ai/ha) was 100 and the Plant response rating ([11]; Preemergence, 62 g ai/ha) was 100. The Plant response rating ([11]; Preemergence, 125 g ai/ha) was 100, the Plant response rating ([11]; Preemergence, 250 g ai/ha) was 100 and the Plant response rating ([11]; Preemergence, 500 g ai/ha) was 100.
